Measured values published in PMC7734281, “Functionalized Oxoindolin Hydrazine Carbothioamide Derivatives as Highly Potent Inhibitors of Nucleoside Triphosphate Diphosphohydrolases” (Frontiers in Pharmacology, 2020).
Entries after “also recorded” stand apart in the source; their conditions may differ.

What was measured:
mice pancreatic islets = experiment: Glucose stimulated insulin secretion in isolated mice islets (ELISA); type: cell-based, BALB/c mice; settings: 16.7 mM glucose; for Effect on glucose stimulated insulin secretion: compound 200 µM, 1 h, 37°C
Method: Six to eight week old BALB/c mice, weighing 30–40 g, were used in the study. These mice were obtained from the animal house of COMSATS University Islamabad, Abbottabad Campus and placed under standard temperature (25 ± 2°C) and humidity (50–55%) conditions with an alternate 12-h light/dark cycle. All the experimental animals were provided with a continuous supply of food and water. The animals were handled according to internationally accepted guidelines of animal care and use. Moreover, this study was reviewed and approved by Research Ethics Committee, Department of Pharmacy, COMSATS University Islamabad, Abbottabad Campus. (Protocol number: PHM.Eth./CS-M01-020-1609)
The islets were isolated from mice pancreas as previously described, by a process involving collagenase digestion ([Hameed et al., 2018]). Briefly, mice were anesthetized with sodium thiopental (30 mg kg) and sacrificed by cervical dislocation to block the flow of blood. Immediately, mice were transferred to biological hood and their abdominal cavity was opened completely by making an incision on abdomen. In order to stop the bile flow toward duodenum, ampulla was located and clamped under dissection microscope. Then, distention of pancreas was carried out by injecting 3 ml of collagenase solution (1 mg/ml) through common bile duct. The distended pancreas was removed as a whole, transferred to a 50 ml tube and digested in collagenase solution at 37°C. After 15 min, digestion was stopped by placing the tube on ice and 20 ml of Hank’s Balanced Salt Solution (HBSS) was added to it. Thus the digested islets were washed with HBSS (two to three times) by centrifugation (1,000 rpm) for 1 min at 4°C. Finally, islets were purified by passing through a cell strainer (70 µm) and isolated manually (by hand picking) under stereomicroscope (Euromex, Arnhem, Netherlands). All the purification and isolation procedures were carried out in HBSS, containing no magnesium, calcium and phenol red.
Krebs-Ringer bicarbonate buffer (KRBB) was used as an incubation medium for islets and was composed of NaCl (118 mM), KCl (4.7 mM), CaCl2 (1.9 mM), MgSO4 (1.2 mM), NaHCO3 (25 mM), 4-(2-hydroxyethyl)-1-piperazineethanesulfonic acid (HEPES, 10 mM) and bovine serum albumin (0.1%). The pH of KRBB was maintained at 7.4. The isolated islets were size-matched and pre-incubated (3 islets/tube) for 45 min at 37°C in KRBB, supplemented with 3 mM glucose. Thereafter, incubation medium was replaced with fresh KRBB (containing 16.7 mM glucose) and islets were incubated for 60 min at 37°C with or without test substance(s). After incubation, supernatant was collected and stored at −40°C until further use. Finally, collected samples were properly diluted and insulin secretion was estimated with ultra-sensitive mouse insulin ELISA kit (Crystal Chem Inc., Downers Grove, United States) according to the manufacturer’s instructions. The absorbance was measured at 450 nm and insulin secretion was normalized for number of islets used. ([Hameed et al., 2018]).

[1] = test system: ectonucleotidase activity in islets homogenate; experiment: Ectonucleotidase activity of islet homogenate (malachite green, Pi release); type: biochemical, mice; settings: for Effect on ectonucleotidase activity in islets homogenate: compound 100 µM, 100 µM ATP as substrate, versus control
Method: Islets were isolated and homogenized, according to the previously reported method ([Hedeskov and Capito, 1974]). After isolation, islets were washed thrice with HBSS and suspended in an ice-cold buffer containing sucrose (0.25 M), ethylenediaminetetraacetic acid (EDTA,1 mM) and tris-HCl (5 mM), maintained at pH 7.0. The resulting suspension was diluted with assay buffer, composed of tris-HCl (50 mM) and CaCl2 (5 mM). Afterward, these islets were sonicated for 30 s leading to disruption of islets and formation of a homogenate. Cellular debris was removed by centrifugation at 15,000 rpm for 10 min (4°C). The supernatant was collected and stored on ice. Protein concentration was estimated by Bradford method, using bovine serum albumin as reference standard ([Bradford, 1976]).
In order to determine the effect of compounds on ectonucleotidase activity in mice islets, standard curve based procedure was used where KH2PO4 was used as a standard. A stock solution of KH2PO4 (1 mM) was prepared in assay buffer that was used to prepare the working solutions of lower concentrations (0–100 µm). A standard curve was generated by incubating increasing concentration of KH2PO4 with buffer and malachite green reagent.
The assay was carried out in tris-buffer (pH 7.4) containing tris-HCl (50 mM) and CaCl2 (5 mM), as previously described ([Lavoie et al., 2010]). Compounds were dissolved in DMSO (10%) and tested at a concentration of 100 µM. The assay was started by adding 10 µl of test compound solution to 56 µl of assay buffer, followed by the addition of 6 µl of homogenate (i.e., 3 µg of protein). The mixture was incubated at 37°C for 10 min and then 10 µl of ATP (100 µM) was added to start the reaction. Reaction mixture was again placed in incubator at 37°C for 15 min and then reaction was stopped by adding 100 µl of trichloroacetic acid (10%). […] Finally, samples were mixed with malachite green reagent in an appropriate proportion and released Pi was determined by using standard curve. […] All the experiments were carried out in triplicate and enzyme activity was expressed as […] of Pi/min/mg of protein.

NTPDase3 mRNA = NTPDase3 mRNA expression in mice islets by real time qPCR; type: cell-based
Method: Freshly isolated mice islets were incubated in KRBB at 37°C with glucose (3 mM). After 45 min, these islets were treated with test compounds in KRBB at 37°C for 3 h, in the presence of stimulatory glucose concentration. Once the incubation was complete, supernatant was removed carefully, and RNA was extracted from these islets.
Total RNA was extracted using TRIzol reagent, according to manufacturer’s instruction. The concentration of isolated RNA was quantified by using Lvis plate method (FLUOstar Omega, BMG Labtech, Ortenberg, Germany). This RNA was then reverse transcribed to cDNA in a total reaction volume of 20 µl. Briefly, a reaction mixture containing RNA (1 µg) and oligo-dT (20 μM, 1 µl) was prepared and volume was adjusted to 12 µl with nuclease free water. The prepared mixture was incubated at 65°C for 5 min and then immediately chilled on ice. Afterward, 8 µl of master mix containing 5X reaction buffer (4 µl), rnase inhibitor (1 µl), dNTPs mix (10 mM, 2 µl) and reverse transcriptase (1 µl) was added to above sample. After gentle pipetting, sample was run under following conditions: 25°C for 5 min, 42°C for 70 min and 70°C for 5 min. Once the cDNA was synthesized, real time quantitative PCR was conducted by using PikoReal 96 Real-Time PCR system (Thermo Scientific, Vantaa, Finland). […] Relative expression was determined by normalization to β actin mRNA by ΔΔCT method.

Structure (SMILES)	Effect on glucose stimulated insulin secretion (mice pancreatic islets)	Dose-dependent effect on insulin secretion (mice pancreatic islets; 10–200 µM)	Effect on ectonucleotidase activity in islets homogenate [1]	Dose response of ectonucleotidase activity in islet homogenate ([1]; different concentrations, 100 µM ATP, Pi release)	Effect on expression level of β-actin (housekeeping gene) (NTPDase3 mRNA; mice islets treated 3 h)	Effect on NTPDase3 gene expression (mRNA) (NTPDase3 mRNA; mice islets treated 3 h at stimulatory glucose, normalized to β actin, versus control)
O=C1Nc2ccccc2/C1=N/NC(=S)Nc1ccc(Cl)cc1 [8c, (Z)-N-(4-chlorophenyl)-2-(2-oxoindolin-3-ylidene)hydrazine-1-carbothioamide]	no significant effect on insulin secretion; also recorded: did not show any significant effect on insulin secretion					
CCNC(=S)N/N=C1\C(=O)Nc2ccccc21 [8m, (Z)-N-ethyl-2-(2-oxoindolin-3-ylidene)hydrazine-1-carbothioamide]	potently stimulated insulin secretion; also recorded: significant increase in glucose stimulated insulin secretion	dose dependent increase in insulin release; also recorded: dose dependent increase in insulin secretion	significantly decreased the ectonucleotidase activity; also recorded: significantly reduced the enzyme activity; also recorded: significant reduction in ectonucleotidase activity; also recorded: significantly reduced ectonucleotidase activity	dose dependent decrease in enzyme activity	not affected	no significant effect (p > 0.05); also recorded: had not suppressed the gene expression of NTPDase3; also recorded: without affecting the NTPDase3 gene expression
Cc1ccc(C(=O)Nc2ccc(S(=O)(=O)O)c3cc(S(=O)(=O)O)cc(S(=O)(=O)O)c23)cc1NC(=O)c1cccc(NC(=O)Nc2cccc(C(=O)Nc3cc(C(=O)Nc4ccc(S(=O)(=O)O)c5cc(S(=O)(=O)O)cc(S(=O)(=O)O)c45)ccc3C)c2)c1 [Suramin, reference compound]	Neither suramin nor isatin had any significant effect		significantly reduced the enzyme activity			
